Reference: PMC10224444, “Novel Perspectives on the Design and Development of a Long-Acting Subcutaneous Raltegravir Injection for Treatment of HIV—In Vitro and In Vivo Evaluation” (Pharmaceutics, 2023)

How the values were obtained:
[1] = parameters: method as in PMID 36678931; details: pH 6.5, over 6 d; cited from earlier work
[2] = parameters: method as in PMID 23515248; details: cited from earlier work
[3] = Pharmacokinetic study after single SC injection in BALB/c mice; assay type: in vivo; details: mouse, in vivo, single SC 30 mg/kg
Method: The pharmacokinetic profile of prodrug 25 was evaluated in mice, in a study undertaken at WuXi AppTec. Prodrug 25 was dissolved in a sterile vehicle of DMSO/Solutol HS15/water (10:10:80) to give a clear solution with a final concentration of 6 mg/mL. The same procedure was used to prepare a 6 mg/mL solution of RAL as a control. Six male BALB/c mice were used, each weighing 18–25 g and aged between 7–9 weeks (three per group). A single 30 mg/kg dose of prodrug 25 was administered to each animal in the treatment group (subcutaneously, in the thoracic region). Similarly, RAL (30 mg/kg) was administered to each animal in the control group. Blood samples were taken at the time points indicated below, up to the experiment endpoint (96 h).
For each animal, blood samples (30 μL each) were collected from the submandibular or saphenous vein over a period of 96 h, at the following time points: zero/pre-dose; then 0.25, 0.5, 1, 2, 3, 4, 5, 6, 24, 48, and 96 h. All samples were transferred into pre-chilled commercial K2EDTA tubes and placed on wet ice until processing for plasma, which was obtained by centrifugation at 4 °C and 3200× g for 10 min, within 30 min of sampling. The plasma samples were transferred to polypropylene tubes, snap-frozen on dry ice, and kept at −70 ± 10 °C until LC-MS/MS analysis.
An LC-MS/MS method was developed to measure the concentrations of prodrug 25 and RAL in the biological matrix. Two mobile phases were used: mobile phase A (0.025% NH4OH and 2 mM NH4OAc in 95:5 v/v water/MeCN) and mobile phase B (0.025% NH4OH and 2 mM NH4OAc in 5:95 v/v water/MeCN). A UPLC method was performed using an LC-MS/MS-BM Triple Quad 6500 plus system with an ACQUITY UPLC BEH C18 1.7 μm column (2.1 × 50 mm) at a flow rate of 0.65 mL/min. The assay time was 2.5 min, and the solvent B composition was as follows: 10–100% (0.2–1.4 min), 30% (1.41–1.7 min), 95% (2.0–2.4 min), and 10% (2.41–2.5 min). The retention times for the prodrug, RAL and the internal standards (tolbutamide and verapamil) were 0.76, 1.04, 0.66, and 0.97 min, respectively. Quantification was performed by monitoring the transition of m/z 835.3 [M+H]^+ to 457.2 for prodrug 25, representing the cyclisation of the linker with the amidic RAL such as in side-product 22; whereas for RAL, the transition m/z 445.2 [M+H]^+ to 361.2 was followed, representing the loss of the 2-methyl-1,3,4-oxadiazole moiety as the main fragmentation pathway. For the internal standards, the m/z transition from 455.2 [M+H]^+ to 164.9 was used for verapamil (corresponding to formation of the verapamil fragment [CH2CH2-(3,4-dimethoxy phenyl)]^+), and for tolbutamide, the transition of m/z of 271.1 [M+H]^+ to 155.1 was used, representing formation of the [CH3-Ph-SO2]^+ fragment. […] The method was linear over the measured standard concentrations for 25 and RAL. The mean plasma concentration was determined for 25 and RAL (as metabolite or control) at each sampling time point. Pharmacokinetic parameters were then calculated by non-compartmental analysis of plasma concentration/time profiles using the Phoenix WinNonlin 6.3 software. The computed parameters were as follows: peak plasma concentration (Cmax); the time over which the initial concentration is reduced to half (t½); area under the plasma concentration versus time curve from time zero to 96 h (AUC 0–96 h); and mean residence time from time zero to 96 h (MRT 0–96 h).
Since in vitro models are not fully predictive of in vivo pharmacokinetics, especially for prodrugs, assessment of these characteristics still relies on in vivo studies. Therefore, the pharmacokinetic profile of prodrug 25 was evaluated in mice. Compound 25 and the control (RAL) were dissolved in DMSO/Solutol HS15/water (10:10:80). For a single SC injection of 25 (30 mg/kg) in BALB/c mice (n = 3), the plasma concentrations of prodrug and released RAL were measured at the following time points: zero/pre-dose; then 0.25, 0.5, 1, 2, 3, 4, 5, 6, 24, 48, and 96 h. […]

[4] = parameters: method as in PMID 18321239; details: cited from earlier work
[5] = parameters: method as in PMID 33979164; details: cited from earlier work
[6] = parameters: method as in PMID 33979164; details: cited from earlier work; remark: listed apart in the source
[7] = parameters: method as in PMID 33979164; details: cited from earlier work; remark: listed apart in the source
[8] = plasma level of the dosed compound, male BALB/c mice, n = 3

**Q.** Which “release of mesalamine over 6 d” value [1] does the source give for `C#CCCCNCCCCOC(=O)OCOc1ccc(N)cc1C(=O)O` [Compound 4] here?
**A.** The value was 92%.

**Q.** For `Cc1nnc(C(=O)NC(C)(C)c2nc(C(=O)NCc3ccc(F)cc3)c(O)c(=O)n2C)o1` [RAL, raltegravir], which pKa [2] is on record?
**A.** Its pKa is 6.7.

**Q.** What about the concentration at 6 h ([3]; male, RAL control, BALB/c mice, 6 h, read-out: plasma concentration remaining after 6 h) of the same compound?
**A.** The concentration at 6 h was 10.7 ng/mL.

**Q.** What about the Cmax [3, 8] of the same compound?
**A.** The Cmax was 6230 ng/mL.

**Q.** And the Tmax [3, 8]?
**A.** The Tmax was 19.8 min.

**Q.** And the AUC(0-t) ([3]; plasma level of the dosed compound, male BALB/c mice, n = 3, read-out: AUC 0–96 h)?
**A.** Its AUC(0-t) is 9890 ng·h/mL.

**Q.** And the half-life ([3]; plasma level of the dosed compound, male BALB/c mice, n = 3, read-out: t½ (converted))?
**A.** Its half-life is 45.6 min.

**Q.** What about the “half-life (t½)” value [4] of the same compound?
**A.** The value was 420 to 720 min.

**Q.** Which “aqueous solubility compared with the parent compound” value [5] does the source give for `CNCCOC(=O)OCOc1c(-c2ccc(Oc3ccc(OC(F)(F)F)cc3)cc2F)c(C)nc2cc(OC)c(Cl)cc12` [Compound 1] here?
**A.** The value was “enhanced”.

**Q.** And the “oral bioavailability compared with the parent compound” value [6]?
**A.** The value was “enhanced”.

**Q.** What about the “parent compound released within 1 h” value ([7]; pH 7.0, within 1 h) of the same compound?
**A.** Its value is over 90%.

**Q.** Which results are given for `CNCCCOC(=O)OCOc1c(-c2ccc(Oc3ccc(OC(F)(F)F)cc3)cc2F)c(C)nc2cc(OC)c(Cl)cc12` [Compound 2]?
**A.** aqueous solubility compared with the parent compound [5]: enhanced; oral bioavailability compared with the parent compound [6]: enhanced; payload released over 5 h ([7]; pH 7.0, over 5 h): > 55%
